The record followed here is ChEMBL document CHEMBL1817617, “Novel macrocyclic C-aryl glucoside SGLT2 inhibitors as potential antidiabetic agents” (Bioorg Med Chem, 2011).

A word on the IC50: it is the midpoint of a concentration-inhibition curve.

In one assay the target is T1, Sodium/glucose cotransporter 2 (Homo sapiens, UniProt P31639).
T1 sequence (P31639 whole entry): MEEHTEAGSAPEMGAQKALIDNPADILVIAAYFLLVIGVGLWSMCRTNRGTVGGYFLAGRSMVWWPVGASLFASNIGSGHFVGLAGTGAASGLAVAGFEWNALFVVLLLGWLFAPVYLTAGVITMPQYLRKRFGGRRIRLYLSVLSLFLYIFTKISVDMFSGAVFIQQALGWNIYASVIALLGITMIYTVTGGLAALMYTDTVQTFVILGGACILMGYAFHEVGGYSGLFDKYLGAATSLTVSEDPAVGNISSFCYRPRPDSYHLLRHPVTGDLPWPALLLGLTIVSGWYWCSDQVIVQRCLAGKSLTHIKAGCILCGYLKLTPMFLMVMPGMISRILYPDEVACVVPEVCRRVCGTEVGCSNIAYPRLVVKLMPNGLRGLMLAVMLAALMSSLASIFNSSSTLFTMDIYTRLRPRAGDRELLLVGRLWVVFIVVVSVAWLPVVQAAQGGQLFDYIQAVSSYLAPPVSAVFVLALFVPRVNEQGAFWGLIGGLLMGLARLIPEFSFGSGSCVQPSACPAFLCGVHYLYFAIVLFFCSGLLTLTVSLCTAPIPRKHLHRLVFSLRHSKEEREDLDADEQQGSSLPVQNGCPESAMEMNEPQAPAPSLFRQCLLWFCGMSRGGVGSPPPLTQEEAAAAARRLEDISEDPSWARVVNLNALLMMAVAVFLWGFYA
Description: Inhibition of human SGLT2 expressed in CHO cells assessed as reduction of [14C]-labeled AMG after 2 hrs by liquid scintillation counting. It is filed as cell-based.
Regarding `CCOc1ccc(Cc2cc3c(cc2Cl)OCCOC[C@H]2O[C@@H]3[C@H](O)[C@@H](O)[C@@H]2O)cc1`, the IC50 came out at 1.34 nM.

As for `CCOc1ccc(Cc2cc3c(cc2Cl)OCCCOC[C@H]2O[C@@H]3[C@H](O)[C@@H](O)[C@@H]2O)cc1`, the IC50 was 2.95 nM. The same measure, in the same setting: the value for `CCc1ccc(Cc2cc3c(cc2Cl)OCCCOC[C@H]2O[C@@H]3[C@H](O)[C@@H](O)[C@@H]2O)cc1` was 1.59 nM.

A further assay deals with Rattus norvegicus. In words: Antidiabetic activity in Sprague-Dawley rat assessed as induction of urinary glucose excretion per 200 gram of body weight at 1 mg/kg, po. It is filed as functional, Urine.
As to `CCOc1ccc(Cc2cc3c(cc2Cl)OCCCCCOC[C@H]2O[C@@H]3[C@H](O)[C@@H](O)[C@@H]2O)cc1`, the Activity came to 226 mg. Take `CCc1ccc(Cc2cc3c(cc2Cl)OCCCCCOC[C@H]2O[C@@H]3[C@H](O)[C@@H](O)[C@@H]2O)cc1`: the Activity is 116 mg. Same read-out and setting: then `CCOc1ccc(Cc2cc([C@@H]3O[C@H](CO)[C@@H](O)[C@H](O)[C@H]3O)ccc2Cl)cc1` [DAPAGLIFLOZIN], with 1648 mg.
